Laboratory results: US11053204B2, “Pyrimidinyloxy benzene derivatives as herbicides” (FMC Corporation, priority 2015, dated 2021)

Tests used:
Format in all cases: in vivo
[1] = test system: barnyardgrass (Echinochloa crus-galli); assay: Test A preemergence, visual injury rating
In short: (§1)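 Visual 0–100 rating (100 = complete control) taken about 10 d post-treatment relative to untreated checks. Preemergence: directed soil spray on sown loam/sand pots. Postemergence: seedlings 2–10 cm, 1–2 leaf. Non-phytotoxic solvent formulation with surfactant.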

[2] = test system: kochia (Kochia scoparia); assay: Test A preemergence, visual injury rating
In short: as §1

[3] = test system: barnyardgrass (Echinochloa crus-galli); assay: Test C postemergence, plant response rating; details: for Plant response rating, Barnyardgrass: scale 0 to 100; for Barnyardgrass plant response rating: scale 0 to 100 (0 no effect, 100 complete control)
In short: (§2)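 Pre-emergence: seeds sown in loam soil–sand blend or silt loam and sprayed with test chemicals in a non-phytotoxic solvent mixture with surfactant. Post-emergence: plants 2 to 18 cm (1- to 4-leaf stage) in peat-based potting medium, same formulation. Greenhouse 13 to 15 d; visual rating 0 (no effect) to 100 (complete control) versus controls.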

[4] = test system: blackgrass (Alopecurus myosuroides); assay: Test C postemergence, plant response rating; details: for Plant response rating, Blackgrass: scale 0 to 100; for Blackgrass plant response rating: scale 0 to 100 (0 no effect, 100 complete control)
In short: as §2

[5] = test system: chickweed (common chickweed, Stellaria media); assay: Test C postemergence, plant response rating; details: for Chickweed plant response rating: scale 0 to 100 (0 no effect, 100 complete control)
In short: as §2

[6] = test system: corn (Zea mays); assay: Test C postemergence, plant response rating; details: for Corn plant response rating: scale 0 to 100 (0 no effect, 100 complete control)
In short: as §2

[7] = test system: crabgrass, large (large crabgrass, Digitaria sanguinalis); assay: Test C postemergence, plant response rating; details: for Crabgrass, Large plant response rating: scale 0 to 100 (0 no effect, 100 complete control)
In short: as §2

[8] = test system: foxtail, giant (giant foxtail, Setaria faberii); assay: Test C postemergence, plant response rating; details: for Foxtail, Giant plant response rating: scale 0 to 100 (0 no effect, 100 complete control)
In short: as §2

[9] = test system: kochia (Kochia scoparia); assay: Test C postemergence, plant response rating; details: for Kochia plant response rating: scale 0 to 100 (0 no effect, 100 complete control)
In short: as §2

[10] = test system: lambsquarters (Chenopodium album); assay: Test C postemergence, plant response rating; details: for Lambsquarters plant response rating: scale 0 to 100 (0 no effect, 100 complete control)
In short: as §2

[11] = test system: morningglory (Ipomoea coccinea); assay: Test C postemergence, plant response rating; details: for Morningglory plant response rating: scale 0 to 100 (0 no effect, 100 complete control)
In short: as §2

[12] = test system: nutsedge, yellow (yellow nutsedge, Cyperus esculentus); assay: Test C postemergence, plant response rating; details: for Nutsedge, Yellow plant response rating: scale 0 to 100 (0 no effect, 100 complete control)
In short: as §2

[13] = test system: oat, wild (wild oat Avena fatua); assay: Test C postemergence, plant response rating; details: for Oat, Wild plant response rating: scale 0 to 100 (0 no effect, 100 complete control)
In short: as §2

[14] = test system: oilseed rape (Brassica napus); assay: Test C postemergence, plant response rating; details: for Oilseed Rape plant response rating: scale 0 to 100 (0 no effect, 100 complete control)
In short: as §2

[15] = test system: ryegrass, Italian (Italian ryegrass, Lolium multiflorum); assay: Test C postemergence, plant response rating; details: for Ryegrass, Italian plant response rating: scale 0 to 100 (0 no effect, 100 complete control)
In short: as §2

[16] = test system: soybean (Glycine max); assay: Test C postemergence, plant response rating; details: for Soybean plant response rating: scale 0 to 100 (0 no effect, 100 complete control)
In short: as §2

[17] = test system: wheat (winter wheat, Triticum aestivum); assay: Test C postemergence, plant response rating
In short: as §2

[18] = 31 g ai/ha, 0 to 100 scale, 0 no effect, 100 complete control
[19] = 125 g ai/ha, 0 to 100 scale (0 no effect, 100 complete control)

SMILES: O=C(CCCC(F)(F)F)c1c(Cl)cccc1Oc1ncc(Cl)cn1 [Compound 143]
- Plant response rating, Barnyardgrass [1, 18]: 20
- Plant response rating, Barnyardgrass [1, 19]: 100
- Plant response rating, Kochia [2, 18]: 100
- Plant response rating, Kochia [2, 19]: 100
- Plant response rating, Barnyardgrass ([3]; 16 g ai/ha): 5
- Plant response rating, Barnyardgrass ([3]; 31 g ai/ha): 10
- Barnyardgrass plant response rating ([3]; 62 g ai/ha): 10
- Barnyardgrass plant response rating ([3]; 125 g ai/ha): 20
- Plant response rating, Blackgrass ([4]; 16 g ai/ha): 10
- Plant response rating, Blackgrass ([4]; 31 g ai/ha): 15
- Blackgrass plant response rating ([4]; 62 g ai/ha): 15
- Blackgrass plant response rating ([4]; 125 g ai/ha): 40
- Plant response rating, Chickweed ([5]; 16 g ai/ha, scale of 0 to 100): 80
- Plant response rating, Chickweed ([5]; 31 g ai/ha, scale 0 to 100): 80
- Chickweed plant response rating ([5]; 62 g ai/ha): 85
- Chickweed plant response rating ([5]; 125 g ai/ha): 100
- Plant response rating, Corn ([6]; 16 g ai/ha, scale of 0 to 100): 15
- Plant response rating, Corn ([6]; 31 g ai/ha, scale 0 to 100): 20
- Corn plant response rating ([6]; 62 g ai/ha): 20
- Corn plant response rating ([6]; 125 g ai/ha): 30
- Plant response rating, Crabgrass, Large ([7]; 16 g ai/ha, scale of 0 to 100): 5
- Plant response rating, Crabgrass, Large ([7]; 31 g ai/ha, scale 0 to 100): 5
- Crabgrass, Large plant response rating ([7]; 62 g ai/ha): 15
- Crabgrass, Large plant response rating ([7]; 125 g ai/ha): 30
- Plant response rating, Foxtail, Giant ([8]; 16 g ai/ha, scale of 0 to 100): 20
- Plant response rating, Foxtail, Giant ([8]; 31 g ai/ha, scale 0 to 100): 10
- Foxtail, Giant plant response rating ([8]; 62 g ai/ha): 10
- Foxtail, Giant plant response rating ([8]; 125 g ai/ha): 25
- Plant response rating, Kochia ([9]; 16 g ai/ha, scale of 0 to 100): 98
- Plant response rating, Kochia ([9]; 31 g ai/ha, scale 0 to 100): 100
- Kochia plant response rating ([9]; 62 g ai/ha): 100
- Kochia plant response rating ([9]; 125 g ai/ha): 100
- Plant response rating, Lambsquarters ([10]; 16 g ai/ha, scale of 0 to 100): 75
- Plant response rating, Lambsquarters ([10]; 31 g ai/ha, scale 0 to 100): 90
- Lambsquarters plant response rating ([10]; 62 g ai/ha): 90
- Lambsquarters plant response rating ([10]; 125 g ai/ha): 95
- Plant response rating, Morningglory ([11]; 16 g ai/ha, scale of 0 to 100): 15
- Plant response rating, Morningglory ([11]; 31 g ai/ha, scale 0 to 100): 70
- Morningglory plant response rating ([11]; 62 g ai/ha): 50
- Morningglory plant response rating ([11]; 125 g ai/ha): 65
- Plant response rating, Nutsedge, Yellow ([12]; 16 g ai/ha, scale of 0 to 100): 0
- Plant response rating, Nutsedge, Yellow ([12]; 31 g ai/ha, scale 0 to 100): 5
- Nutsedge, Yellow plant response rating ([12]; 62 g ai/ha): 5
- Nutsedge, Yellow plant response rating ([12]; 125 g ai/ha): 25
- Plant response rating, Oat, Wild ([13]; 16 g ai/ha, scale of 0 to 100): 10
- Plant response rating, Oat, Wild ([13]; 31 g ai/ha, scale 0 to 100): 10
- Oat, Wild plant response rating ([13]; 62 g ai/ha): 10
- Oat, Wild plant response rating ([13]; 125 g ai/ha): 20
- Plant response rating, Oilseed Rape ([14]; 16 g ai/ha, scale of 0 to 100): 85
- Plant response rating, Oilseed Rape ([14]; 31 g ai/ha, scale 0 to 100): 80
- Oilseed Rape plant response rating ([14]; 62 g ai/ha): 95
- Oilseed Rape plant response rating ([14]; 125 g ai/ha): 100
- Plant response rating, Ryegrass, Italian ([15]; 16 g ai/ha, scale of 0 to 100): 5
- Plant response rating, Ryegrass, Italian ([15]; 31 g ai/ha, scale 0 to 100): 10
- Ryegrass, Italian plant response rating ([15]; 62 g ai/ha): 10
- Ryegrass, Italian plant response rating ([15]; 125 g ai/ha): 20
- Plant response rating, Soybean ([16]; 16 g ai/ha, scale of 0 to 100): 30
- Plant response rating, Soybean ([16]; 31 g ai/ha, scale 0 to 100): 40
- Soybean plant response rating ([16]; 62 g ai/ha): 55
- Soybean plant response rating ([16]; 125 g ai/ha): 65
- Plant response rating, Wheat ([17]; 16 g ai/ha, scale of 0 to 100): 5
- Plant response rating, Wheat ([17]; 31 g ai/ha, scale 0 to 100): 10
- Wheat plant response rating ([17]; 125 g ai/ha, scale 0 to 100 (0 no effect, 100 complete control)): 30
